Reference: patent publication US20020137929A1, “1 - (3-heterocyclylphenyl) isothiourea, -isourea, -guanidine and -amidine herbicidal agents” (Intellectual Property Department, BASF Aktiengesellschaft, priority 1998, published 2002)

Experiments:
GALAP (Galium) [1] = assay: Preemergence herbicidal evaluation; format: in vivo, Galium aparine; details: rated 4-5 weeks after treatment
Procedure, shortened: (§1)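 In this greenhouse assay, monocot and dicot seeds are planted in soil and treated prior to emergence with an aqueous acetone spray (about 0.0156-0.500 kg/ha). Plants are assessed visually against control on a 0-9 scale after 4-5 weeks.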

ABUTH (Velvetleaf) = assay: Postemergence herbicidal evaluation; format: in vivo, Abutilon theophrasti; details: postemergence
Procedure, shortened: (§2)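 Visual 0–9 rating versus control (stand, vigor, malformation, size, chlorosis, overall appearance), taken four to five weeks post-spray. Two-week-old seedlings received roughly 0.0156–0.500 kg/ha active in acetone/water (50/50) with 0.5% TWEEN 20 via nozzle at 40 psi.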

ORYSAT (Rice, Tebonnet) = assay: Preemergence herbicidal evaluation; format: in vivo, Oryza sativa, (L.) Tebonnet; details: rated 4-5 weeks after treatment
Procedure, shortened: as §1

[2] = tested on: TRZAWR (Wheat, Winter, cv Riband); assay: Preemergence herbicidal evaluation; format: in vivo, Triticum aestivum; details: rated 4-5 weeks after treatment
Procedure, shortened: as §1

CASOB (Sicklepod) [3] = assay: Postemergence herbicidal evaluation; format: in vivo, Cassia obtusifolia; details: postemergence
Procedure, shortened: as §2

[4] = tested on: CHEAL (Lambsquarters, Common); assay: Postemergence herbicidal evaluation; format: in vivo, Chenopodium album; details: postemergence
Procedure, shortened: as §2

[5] = tested on: TRZAWR (Wheat, Winter, cv Riband); assay: Postemergence herbicidal evaluation; format: in vivo, Triticum aestivum; details: postemergence
Procedure, shortened: as §2

[6] = tested on: IPOHE (Morningglory, Ivyleaf); assay: Postemergence herbicidal evaluation; format: in vivo, Ipomoea hederacea; details: postemergence
Procedure, shortened: as §2

[7] = tested on: GLXMAW (Soybean, Williams); assay: Preemergence herbicidal evaluation; format: in vivo, Glycine max, (L.) Merr. cv Williams; details: rated 4-5 weeks after treatment
Procedure, shortened: as §1

ZEAMX (Corn, Field) = assay: Postemergence herbicidal evaluation; format: in vivo, Zea mays; details: postemergence
Procedure, shortened: as §2

SETVI (Foxtail, Green) = assay: Preemergence herbicidal evaluation; format: in vivo, Setaria viridis; details: rated 4-5 weeks after treatment
Procedure, shortened: as §1

[8] = tested on: IPOHE (Morningglory, Ivyleaf); assay: Preemergence herbicidal evaluation; format: in vivo, Ipomoea hederacea; details: rated 4-5 weeks after treatment
Procedure, shortened: as §1

CASOB (Sicklepod) [9] = assay: Preemergence herbicidal evaluation; format: in vivo, Cassia obtusifolia; details: rated 4-5 weeks after treatment
Procedure, shortened: as §1

GALAP (Galium) [10] = assay: Postemergence herbicidal evaluation; format: in vivo, Galium aparine; details: postemergence
Procedure, shortened: as §2

[11] = tested on: SAGPY (Arrowhead (Pygmaea)); assay: Preemergence weed control under flooded paddy conditions; format: in vivo, Sagittaria pygmaea; details: rated 3-4 weeks after treatment
Procedure, shortened: (§3)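 Seeds or propagules sown in top 0.5 cm of silt loam soil, flooded 1.5 to 3 cm above surface throughout. Compound in 50/50 v/v aqueous/acetone pipetted into flood water at about 0.0313 to 0.500 kg/ha. Visual 0-9 rating versus control after three to four weeks in greenhouse.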

ECHCG (Barnyardgrass) = assay: Preemergence herbicidal evaluation; format: in vivo, Echinochloa crus-galli; details: rated 4-5 weeks after treatment
Procedure, shortened: as §1

MOOVA (Monochoria) = assay: Preemergence weed control under flooded paddy conditions; format: in vivo, Monochoria vaginalis; details: rated 3-4 weeks after treatment
Procedure, shortened: as §3

Q: With `CCOC(=O)CN1C(=O)C(CC(=O)NS(=O)(=O)C(C)C)SC1=Nc1cc(-n2c(=O)cc(C(F)(F)F)n(C)c2=O)c(F)cc1Cl` (stereo not drawn) [Compound 117, Ethyl 2-{{2-chloro-5-[3,6-dihydro-3-methyl-2,6-dioxo-4-(trifluoromethyl)-1(2H)-pyrimidinyl]-4-fluorophenyl}imino}-5-{[(isopropylsulfonyl)-carbamoyl]methyl}-4-oxo-3-thiazolidineacetate] as the compound, how does the “Preemergence herbicidal rating GALAP” value (GALAP (Galium) [1]; rate 0.0156 kg/ha) read?
A: 0.0

Q: What about the “Preemergence herbicidal rating GALAP” value (GALAP (Galium) [1]; rate 0.0313 kg/ha) of the same compound?
A: 0.0

Q: And the “Preemergence herbicidal rating GALAP” value (GALAP (Galium) [1]; rate 0.0625 kg/ha)?
A: 0.0

Q: And the “Preemergence herbicidal rating GALAP” value (GALAP (Galium) [1]; rate 0.1250 kg/ha)?
A: 3.0

Q: What about the “Preemergence herbicidal rating GALAP” value (GALAP (Galium) [1]; rate 0.2500 kg/ha) of the same compound?
A: 7.0

Q: And the “herbicidal rating ABUTH” value (ABUTH (Velvetleaf); rate 0.0158 kg/ha)?
A: 9.0

Q: And the “herbicidal rating ABUTH” value (ABUTH (Velvetleaf); rate 0.0315 kg/ha)?
A: 9.0

Q: What about the “herbicidal rating ABUTH” value (ABUTH (Velvetleaf); rate 0.0630 kg/ha) of the same compound?
A: 9.0

Q: What about the “Preemergence herbicidal rating ORYSAT” value (ORYSAT (Rice, Tebonnet); rate 0.0156 kg/ha) of the same compound?
A: 0.0

Q: What about the “Preemergence herbicidal rating ORYSAT” value (ORYSAT (Rice, Tebonnet); rate 0.0313 kg/ha) of the same compound?
A: 0.0

Q: And the “Preemergence herbicidal rating ORYSAT” value (ORYSAT (Rice, Tebonnet); rate 0.0625 kg/ha)?
A: 0.0

Q: And the “Preemergence herbicidal rating ORYSAT” value (ORYSAT (Rice, Tebonnet); rate 0.1250 kg/ha)?
A: 0.0

Q: And the “Preemergence herbicidal rating ORYSAT” value (ORYSAT (Rice, Tebonnet); rate 0.2500 kg/ha)?
A: 0.0

Q: And the “Preemergence herbicidal rating TRZAWR” value ([2]; rate 0.0156 kg/ha)?
A: 0.0

Q: What about the “Preemergence herbicidal rating TRZAWR” value ([2]; rate 0.0313 kg/ha) of the same compound?
A: 0.0

Q: And the “Preemergence herbicidal rating TRZAWR” value ([2]; rate 0.0625 kg/ha)?
A: 0.0

Q: What about the “Preemergence herbicidal rating TRZAWR” value ([2]; rate 0.1250 kg/ha) of the same compound?
A: 0.0

Q: What about the “Preemergence herbicidal rating TRZAWR” value ([2]; rate 0.2500 kg/ha) of the same compound?
A: 0.0

Q: And the “herbicidal rating CASOB” value (CASOB (Sicklepod) [3]; rate 0.0158 kg/ha)?
A: 0.0

Q: And the “herbicidal rating CASOB” value (CASOB (Sicklepod) [3]; rate 0.0315 kg/ha)?
A: 1.0

Q: What about the “herbicidal rating CASOB” value (CASOB (Sicklepod) [3]; rate 0.0630 kg/ha) of the same compound?
A: 1.0

Q: What about the “herbicidal rating CHEAL” value ([4]; rate 0.0158 kg/ha) of the same compound?
A: 0.0

Q: And the “herbicidal rating CHEAL” value ([4]; rate 0.0315 kg/ha)?
A: 4.0

Q: What about the “herbicidal rating CHEAL” value ([4]; rate 0.0630 kg/ha) of the same compound?
A: 9.0

Q: And the “herbicidal rating TRZAWR” value ([5]; rate 0.0158 kg/ha)?
A: 3.0

Q: And the “herbicidal rating TRZAWR” value ([5]; rate 0.0315 kg/ha)?
A: 3.5

Q: And the “herbicidal rating TRZAWR” value ([5]; rate 0.0630 kg/ha)?
A: 3.5

Q: And the “herbicidal rating IPOHE” value ([6]; rate 0.0158 kg/ha)?
A: 9.0

Q: And the “herbicidal rating IPOHE” value ([6]; rate 0.0315 kg/ha)?
A: 9.0

Q: And the “herbicidal rating IPOHE” value ([6]; rate 0.0630 kg/ha)?
A: 9.0

Q: And the “Preemergence herbicidal rating GLXMAW” value ([7]; rate 0.0156 kg/ha)?
A: 0.0

Q: And the “Preemergence herbicidal rating GLXMAW” value ([7]; rate 0.0313 kg/ha)?
A: 0.0

Q: And the “Preemergence herbicidal rating GLXMAW” value ([7]; rate 0.0625 kg/ha)?
A: 1.0

Q: And the “Preemergence herbicidal rating GLXMAW” value ([7]; rate 0.1250 kg/ha)?
A: 1.0

Q: And the “Preemergence herbicidal rating GLXMAW” value ([7]; rate 0.2500 kg/ha)?
A: 1.0

Q: And the “herbicidal rating ZEAMX” value (ZEAMX (Corn, Field); rate 0.0158 kg/ha)?
A: 4.5

Q: And the “herbicidal rating ZEAMX” value (ZEAMX (Corn, Field); rate 0.0315 kg/ha)?
A: 5.0

Q: And the “herbicidal rating ZEAMX” value (ZEAMX (Corn, Field); rate 0.0630 kg/ha)?
A: 5.0

Q: What about the “Preemergence herbicidal rating SETVI” value (SETVI (Foxtail, Green); rate 0.0156 kg/ha) of the same compound?
A: 1.0

Q: And the “Preemergence herbicidal rating SETVI” value (SETVI (Foxtail, Green); rate 0.0313 kg/ha)?
A: 0.0

Q: And the “Preemergence herbicidal rating SETVI” value (SETVI (Foxtail, Green); rate 0.0625 kg/ha)?
A: 1.0

Q: And the “Preemergence herbicidal rating SETVI” value (SETVI (Foxtail, Green); rate 0.1250 kg/ha)?
A: 0.0

Q: What about the “Preemergence herbicidal rating SETVI” value (SETVI (Foxtail, Green); rate 0.2500 kg/ha) of the same compound?
A: 0.0

Q: What about the “Preemergence herbicidal rating IPOHE” value ([8]; rate 0.0156 kg/ha) of the same compound?
A: 0.0

Q: And the “Preemergence herbicidal rating IPOHE” value ([8]; rate 0.0313 kg/ha)?
A: 0.0

Q: What about the “Preemergence herbicidal rating IPOHE” value ([8]; rate 0.0625 kg/ha) of the same compound?
A: 0.0

Q: What about the “Preemergence herbicidal rating IPOHE” value ([8]; rate 0.1250 kg/ha) of the same compound?
A: 0.0

Q: What about the “Preemergence herbicidal rating IPOHE” value ([8]; rate 0.2500 kg/ha) of the same compound?
A: 9.0

Q: And the “Preemergence herbicidal rating CASOB” value (CASOB (Sicklepod) [9]; rate 0.0156 kg/ha)?
A: 0.0

Q: What about the “Preemergence herbicidal rating CASOB” value (CASOB (Sicklepod) [9]; rate 0.0313 kg/ha) of the same compound?
A: 0.0

Q: And the “Preemergence herbicidal rating CASOB” value (CASOB (Sicklepod) [9]; rate 0.0625 kg/ha)?
A: 0.0

Q: What about the “Preemergence herbicidal rating CASOB” value (CASOB (Sicklepod) [9]; rate 0.1250 kg/ha) of the same compound?
A: 1.0

Q: What about the “Preemergence herbicidal rating CASOB” value (CASOB (Sicklepod) [9]; rate 0.2500 kg/ha) of the same compound?
A: 1.0

Q: What about the “herbicidal rating GALAP” value (GALAP (Galium) [10]; rate 0.0158 kg/ha) of the same compound?
A: 1.0

Q: And the “herbicidal rating GALAP” value (GALAP (Galium) [10]; rate 0.0315 kg/ha)?
A: 1.0

Q: And the “herbicidal rating GALAP” value (GALAP (Galium) [10]; rate 0.0630 kg/ha)?
A: 1.0

Q: And the “herbicidal effect rating, SAGPY” value ([11]; 0.0313 kg/ha)?
A: 0.0

Q: What about the “herbicidal effect rating, SAGPY” value ([11]; 0.0625 kg/ha) of the same compound?
A: 0.0

Q: And the “herbicidal effect rating, SAGPY” value ([11]; 0.1250 kg/ha)?
A: 0.0

Q: What about the “herbicidal effect rating, SAGPY” value ([11]; 0.2500 kg/ha) of the same compound?
A: 0.0

Q: What about the “Preemergence herbicidal rating ECHCG” value (ECHCG (Barnyardgrass); rate 0.0156 kg/ha) of the same compound?
A: 0.0

Q: And the “Preemergence herbicidal rating ECHCG” value (ECHCG (Barnyardgrass); rate 0.0313 kg/ha)?
A: 0.0

Q: And the “Preemergence herbicidal rating ECHCG” value (ECHCG (Barnyardgrass); rate 0.0625 kg/ha)?
A: 0.0

Q: And the “Preemergence herbicidal rating ECHCG” value (ECHCG (Barnyardgrass); rate 0.1250 kg/ha)?
A: 0.0

Q: What about the “Preemergence herbicidal rating ECHCG” value (ECHCG (Barnyardgrass); rate 0.2500 kg/ha) of the same compound?
A: 0.0

Q: And the “herbicidal effect rating, MOOVA” value (MOOVA (Monochoria); 0.0313 kg/ha)?
A: 6.0

Q: What about the “herbicidal effect rating, MOOVA” value (MOOVA (Monochoria); 0.0625 kg/ha) of the same compound?
A: 7.0

Q: And the “herbicidal effect rating, MOOVA” value (MOOVA (Monochoria); 0.1250 kg/ha)?
A: 9.0

Q: What about the “herbicidal effect rating, MOOVA” value (MOOVA (Monochoria); 0.2500 kg/ha) of the same compound?
A: 9.0
